Data: BindingDB's records for doi:10.1074/jbc.M707463200 (National Cancer Institute-Bethesda, 2008)

Legend:
Test in all cases: Binding Assay
Details in all cases: pH 7.4; 18 °C
[1] = biological target: Serine/threonine-protein kinase MRCK alpha (Homo sapiens, UniProt Q5VT25)
Experimental: (§1) [3H]PDBu binding to the C1 domains of MRCK alpha/beta and PKC alpha/delta was measured using the polyethylene glycol precipitation assay.

[2] = biological target: Serine/threonine-protein kinase MRCK beta (Homo sapiens, UniProt Q9Y5S2)
Sequence of Serine/threonine-protein kinase MRCK beta (Q9Y5S2 whole entry): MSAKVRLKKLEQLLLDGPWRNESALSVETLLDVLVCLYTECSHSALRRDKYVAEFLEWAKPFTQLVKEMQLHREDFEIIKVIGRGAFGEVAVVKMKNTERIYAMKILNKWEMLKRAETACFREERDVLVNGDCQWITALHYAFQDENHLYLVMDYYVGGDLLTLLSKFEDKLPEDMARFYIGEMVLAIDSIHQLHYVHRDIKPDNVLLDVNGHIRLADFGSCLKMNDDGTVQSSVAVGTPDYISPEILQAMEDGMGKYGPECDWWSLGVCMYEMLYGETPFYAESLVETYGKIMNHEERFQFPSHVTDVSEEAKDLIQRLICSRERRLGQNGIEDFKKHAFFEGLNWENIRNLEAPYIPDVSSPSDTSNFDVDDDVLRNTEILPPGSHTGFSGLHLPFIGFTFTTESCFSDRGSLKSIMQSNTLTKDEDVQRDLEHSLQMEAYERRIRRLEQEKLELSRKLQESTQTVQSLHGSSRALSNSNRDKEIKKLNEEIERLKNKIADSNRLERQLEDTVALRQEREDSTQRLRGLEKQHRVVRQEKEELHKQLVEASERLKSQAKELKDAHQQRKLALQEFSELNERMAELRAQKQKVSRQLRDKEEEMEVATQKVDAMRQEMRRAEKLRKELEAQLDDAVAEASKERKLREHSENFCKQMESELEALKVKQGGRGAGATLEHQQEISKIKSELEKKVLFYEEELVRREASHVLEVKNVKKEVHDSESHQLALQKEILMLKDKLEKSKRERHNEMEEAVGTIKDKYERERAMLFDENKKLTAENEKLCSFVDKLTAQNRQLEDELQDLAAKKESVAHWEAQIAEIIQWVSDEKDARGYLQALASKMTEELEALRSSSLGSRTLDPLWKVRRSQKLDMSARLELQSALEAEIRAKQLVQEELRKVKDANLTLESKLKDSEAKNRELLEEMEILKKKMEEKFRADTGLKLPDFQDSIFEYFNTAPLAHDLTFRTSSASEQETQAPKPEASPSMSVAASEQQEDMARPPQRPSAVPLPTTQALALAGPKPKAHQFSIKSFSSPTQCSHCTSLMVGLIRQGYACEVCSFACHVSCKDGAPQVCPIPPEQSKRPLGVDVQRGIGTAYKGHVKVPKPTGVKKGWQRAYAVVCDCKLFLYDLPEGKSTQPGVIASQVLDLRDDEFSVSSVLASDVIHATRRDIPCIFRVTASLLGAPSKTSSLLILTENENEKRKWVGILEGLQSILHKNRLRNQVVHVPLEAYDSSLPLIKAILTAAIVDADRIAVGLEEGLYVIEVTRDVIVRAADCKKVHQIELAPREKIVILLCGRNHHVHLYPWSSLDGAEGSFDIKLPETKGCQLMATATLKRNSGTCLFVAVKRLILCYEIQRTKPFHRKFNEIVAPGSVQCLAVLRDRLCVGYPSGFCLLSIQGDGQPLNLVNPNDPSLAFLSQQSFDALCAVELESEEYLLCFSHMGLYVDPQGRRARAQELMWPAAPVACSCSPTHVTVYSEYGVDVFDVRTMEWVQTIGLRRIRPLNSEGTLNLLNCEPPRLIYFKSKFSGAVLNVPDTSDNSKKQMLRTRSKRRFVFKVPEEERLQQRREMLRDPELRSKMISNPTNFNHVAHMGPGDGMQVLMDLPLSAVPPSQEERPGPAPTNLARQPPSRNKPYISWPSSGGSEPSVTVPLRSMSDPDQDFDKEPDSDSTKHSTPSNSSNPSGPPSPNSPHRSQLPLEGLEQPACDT
Experimental: as §1

[3] = biological target: Protein kinase C alpha type (Homo sapiens, UniProt P17252)
Experimental: as §1

[4] = biological target: Protein kinase C delta type (Homo sapiens, UniProt Q05655)
Sequence of Protein kinase C delta type (Q05655 whole entry): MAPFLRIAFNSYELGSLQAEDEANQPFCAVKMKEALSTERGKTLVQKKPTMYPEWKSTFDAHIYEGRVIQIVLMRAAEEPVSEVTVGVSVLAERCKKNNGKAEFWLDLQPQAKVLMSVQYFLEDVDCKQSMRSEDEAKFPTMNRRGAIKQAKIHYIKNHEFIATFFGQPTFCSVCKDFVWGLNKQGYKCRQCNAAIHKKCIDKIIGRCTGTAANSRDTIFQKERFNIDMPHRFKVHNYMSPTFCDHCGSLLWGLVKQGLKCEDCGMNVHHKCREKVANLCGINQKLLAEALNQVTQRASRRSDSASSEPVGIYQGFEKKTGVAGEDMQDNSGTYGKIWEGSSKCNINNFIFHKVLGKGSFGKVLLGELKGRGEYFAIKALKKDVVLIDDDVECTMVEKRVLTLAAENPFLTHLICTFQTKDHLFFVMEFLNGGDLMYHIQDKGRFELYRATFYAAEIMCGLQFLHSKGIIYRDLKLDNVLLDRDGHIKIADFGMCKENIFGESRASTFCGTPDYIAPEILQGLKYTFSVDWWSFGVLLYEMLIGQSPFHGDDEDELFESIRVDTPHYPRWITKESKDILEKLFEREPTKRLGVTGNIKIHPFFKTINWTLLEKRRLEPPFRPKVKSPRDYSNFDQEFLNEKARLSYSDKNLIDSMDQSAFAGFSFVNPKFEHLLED
Experimental: as §1

Sequence of Serine/threonine-protein kinase MRCK alpha (Q5VT25 whole entry, the tested form may be a part): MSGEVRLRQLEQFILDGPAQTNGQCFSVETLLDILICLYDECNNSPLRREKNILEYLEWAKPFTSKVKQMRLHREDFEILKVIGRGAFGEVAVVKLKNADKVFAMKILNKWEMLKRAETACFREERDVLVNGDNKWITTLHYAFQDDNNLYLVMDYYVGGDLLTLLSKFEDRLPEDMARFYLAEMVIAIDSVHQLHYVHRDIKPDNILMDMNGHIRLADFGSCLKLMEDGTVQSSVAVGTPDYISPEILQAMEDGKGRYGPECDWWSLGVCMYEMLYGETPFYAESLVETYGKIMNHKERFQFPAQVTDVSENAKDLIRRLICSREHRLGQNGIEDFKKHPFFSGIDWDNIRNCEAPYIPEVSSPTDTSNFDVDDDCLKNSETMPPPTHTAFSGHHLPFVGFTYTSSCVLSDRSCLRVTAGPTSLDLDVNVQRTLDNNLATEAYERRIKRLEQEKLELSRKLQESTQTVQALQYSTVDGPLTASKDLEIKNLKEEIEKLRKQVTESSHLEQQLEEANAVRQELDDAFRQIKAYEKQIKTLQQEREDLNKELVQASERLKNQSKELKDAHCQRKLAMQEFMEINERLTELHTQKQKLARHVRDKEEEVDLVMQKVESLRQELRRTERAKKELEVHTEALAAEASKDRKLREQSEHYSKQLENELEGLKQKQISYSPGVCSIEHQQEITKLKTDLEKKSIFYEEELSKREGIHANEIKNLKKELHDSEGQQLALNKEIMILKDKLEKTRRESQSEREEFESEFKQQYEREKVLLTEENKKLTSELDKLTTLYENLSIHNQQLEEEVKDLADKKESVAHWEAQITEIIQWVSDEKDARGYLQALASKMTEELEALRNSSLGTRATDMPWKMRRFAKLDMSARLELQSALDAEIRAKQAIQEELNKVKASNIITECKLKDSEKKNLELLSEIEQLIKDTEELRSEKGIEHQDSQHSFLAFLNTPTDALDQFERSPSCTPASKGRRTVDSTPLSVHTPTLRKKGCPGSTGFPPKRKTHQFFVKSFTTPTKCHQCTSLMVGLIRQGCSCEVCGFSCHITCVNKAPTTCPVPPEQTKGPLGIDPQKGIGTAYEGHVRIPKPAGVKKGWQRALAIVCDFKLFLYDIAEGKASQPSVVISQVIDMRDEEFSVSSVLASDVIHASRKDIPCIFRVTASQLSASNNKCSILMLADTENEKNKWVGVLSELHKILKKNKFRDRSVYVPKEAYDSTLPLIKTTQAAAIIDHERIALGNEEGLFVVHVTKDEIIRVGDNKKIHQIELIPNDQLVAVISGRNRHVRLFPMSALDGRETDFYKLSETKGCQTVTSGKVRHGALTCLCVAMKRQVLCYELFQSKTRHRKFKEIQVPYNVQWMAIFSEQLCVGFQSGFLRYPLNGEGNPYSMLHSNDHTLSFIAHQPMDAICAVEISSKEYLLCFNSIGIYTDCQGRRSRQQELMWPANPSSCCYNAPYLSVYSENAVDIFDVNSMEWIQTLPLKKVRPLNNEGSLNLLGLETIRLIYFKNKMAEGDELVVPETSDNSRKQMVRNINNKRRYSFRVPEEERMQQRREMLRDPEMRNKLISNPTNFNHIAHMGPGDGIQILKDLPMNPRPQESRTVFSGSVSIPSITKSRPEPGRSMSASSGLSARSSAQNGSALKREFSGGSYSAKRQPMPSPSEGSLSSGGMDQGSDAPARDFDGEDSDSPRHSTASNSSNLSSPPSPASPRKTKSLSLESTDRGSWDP

Compound | Ki [1] | Ki [2] | Ki [3] | Ki [4]
CCCCCCCC(=O)OC[C@H](CO)OC(=O)CCCCCCC | 2.82 µM | 6.96 µM |  | 
CN(C)c1ccc(/C=C2/CC(CO)(COC(=O)c3ccc([N+](=O)[O-])cc3)OC2=O)cc1 (centres undefined) [DAG-lactone (130C045)] | 22.6 µM | 26 µM | 4.2 µM | 0.00154 µM
CC(C)CC(C/C=C1/CC(CO)(COC(=O)C(C)(C)C)OC1=O)CC(C)C (centres undefined) [DAG-lactone (HK-434)] | 1.03 µM | 1.07 µM | 0.402 µM | 
